From patent US20180362543A1, “HIV REPLICATION INHIBITOR” (Shionogi & Co., Ltd., priority 2013, published 2018)

System: HIV (HTLV-III B strain)
Experiment: HIV replication inhibition assay (MTT, MT-4 cells)
Format: cell-based
Conditions: Human immunodeficiency virus 1, MT4, 96 h
Method: HIV (HTLV-III B strain) persistent infected human T cell strain Molt-4 clone 8 was cultured in 10% Fetal Bovine Serum-containing RPMI-1640 medium and the supernatant was filtrated, then the virus titer was measured and the solution was stored at −80° C. Each anti-human immunodeficiency virus active substance was diluted with the above cultured medium to the designated concentration, which was dispensed into 96 well micro plate by 50 μL. Next, a MT-4 cell suspended liquid was dispensed by 100 μL (2.5×10^4 cells), then the above HIV-containing supernatant diluted with the above cultured medium was added thereto by 50 μL (60 pfu (plaque forming unit)).
The obtained mixture was cultured at 37° C. in CO2 incubator for four days, then 3-(4,5-dimehylthiazole-2-yl)-2,5-diphenyltetrazolynium bromide (MTT) 5 mg/mL in PBS was added to each well by 30 μL, followed by 1 hr-cultivation. In this step, as formazan was precipitated by reduction of MTT in living cells, the cell supernatant was removed from all well by 150 μL, then a 150 μL of solution (10% Triton X-100 and […]) was added thereto, followed by shaking with a plate mixer, to elute formazan. The formazan was measured with a microreader at OD: 560 nm and 690 nm (wavelength) and the result was compared with the reference. EC50 means the compound concentration at which cell cytotoxicity by virus is inhibited 50%.

| SMILES | EC50 (Table A-4, four days) | EC50 (Table A-5, four days) | also measured |
| --- | --- | --- | --- |
| Cc1ccc(-c2c(C)c3c(c(C)c2[C@H](OC(C)(C)C)C(=O)O)N(S(C)(=O)=O)Cc2c(F)cccc2-3)cc1 [Compound 163] | – | – | EC50 (Table A-3, four days): 15 nM |
| Cc1ccc(-c2c(C)c3c(c(C)c2[C@H](OC(C)(C)C)C(=O)O)N(S(C)(=O)=O)Cc2cc(OC(F)(F)F)ccc2-3)cc1 [Compound 164] | – | – | EC50 (Table A-3, four days): 4.1 nM |
| Cc1ccc(-c2c(C)c3c(c(C)c2[C@H](OC(C)(C)C)C(=O)O)N(S(C)(=O)=O)Cc2cc4c(cc2-3)COC4)cc1 [Compound 166] | – | – | EC50 (Table A-3, four days): 1.7 nM |
| Cc1ccc(-c2c(C)c3c(c(C)c2[C@H](OC(C)(C)C)C(=O)O)N(S(C)(=O)=O)Cc2cc(F)ccc2-3)cc1 [Compound 167] | – | – | EC50 (Table A-3, four days): 8.5 nM |
| COc1ccc2c(c1)-c1c(C)c(-c3ccc(C)cc3)c([C@H](OC(C)(C)C)C(=O)O)c(C)c1N(S(C)(=O)=O)C2 [Compound 168] | – | – | EC50 (Table A-3, four days): 24 nM |
| Cc1ccc(-c2c(C)c3c(c(C)c2[C@H](OC(C)(C)C)C(=O)O)N(S(C)(=O)=O)Cc2cccc(C(F)(F)F)c2-3)cc1 [Compound 169] | – | – | EC50 (Table A-3, four days): 9.6 nM |
| Cc1ccc(-c2c(C)c3c(c(C)c2[C@H](OC(C)(C)C)C(=O)O)NS(=O)(=O)N(c2ccc(F)cc2)CC3)cc1 [Compound 171] | – | – | EC50 (Table A-3, four days): 21 nM |
| Cc1ccc(-c2c(C)c3c(c(C)c2[C@H](OC(C)(C)C)C(=O)O)N(S(C)(=O)=O)Cc2c(F)ccc(C)c2-3)cc1 [Compound 172] | – | – | EC50 (Table A-3, four days): 42 nM |
| Cc1ccc(-c2c(C)c3c(c(C)c2[C@H](OC(C)(C)C)C(=O)O)N(S(C)(=O)=O)Cc2c-3cccc2C(F)(F)F)cc1 [Compound 173] | – | – | EC50 (Table A-3, four days): 9.4 nM |
| COc1ccc2c(c1F)CN(S(C)(=O)=O)c1c(C)c([C@H](OC(C)(C)C)C(=O)O)c(-c3ccc(C)cc3)c(C)c1-2 [Compound 174] | – | – | EC50 (Table A-3, four days): 1.5 nM |
| Cc1ccc(-c2c(C)c3c(c(C)c2[C@H](OC(C)(C)C)C(=O)O)N(S(C)(=O)=O)Cc2cc4c(cc2-3)OCCCO4)cc1 [Compound 175] | – | – | EC50 (Table A-3, four days): 2.9 nM |
| Cc1ccc(-c2c(C)c3c(c(C)c2[C@H](OC(C)(C)C)C(=O)O)NC(=O)N(Cc2ccc(F)cc2)CC3)cc1 [Compound 177] | – | – | EC50 (Table A-3, four days): 34 nM |
| Cc1ccc(-c2c(C)c3c(c(C)c2[C@H](OC(C)(C)C)C(=O)O)N(S(C)(=O)=O)Cc2cscc2-3)cc1 [Compound 183] | – | – | EC50 (Table A-3, four days): 21 nM |
| Cc1ccc(-c2c(C)c3c4c(c2C(OC(C)(C)C)C(=O)O)CCCN4S(=O)(=O)N(Cc2ccc(F)cc2)C3)cc1 (centres unmarked) [Compound 184] | – | – | EC50 (Table A-3, four days): 53 nM |
| Cc1ccc(-c2c(C)c3c(c(C)c2[C@H](OC(C)(C)C)C(=O)O)N(S(C)(=O)=O)Cc2c(C)cccc2-3)cc1 [Compound 208] | 15 nM | – | – |
| Cc1ccc(-c2c(C)c3c(c(C)c2[C@H](OC(C)(C)C)C(=O)O)N(S(C)(=O)=O)Cc2ccncc2-3)cc1 [Compound 210] | 38 nM | – | – |
| Cc1ccc(-c2c(C)c3c(c(C)c2[C@H](OC(C)(C)C)C(=O)O)N(S(C)(=O)=O)Cc2cc(F)cc(F)c2-3)cc1 [Compound 212] | 1.9 nM | – | – |
| COc1cc2c(cn1)-c1c(C)c(-c3ccc(C)cc3)c([C@H](OC(C)(C)C)C(=O)O)c(C)c1N(S(C)(=O)=O)C2 [Compound 214] | 4.9 nM | – | – |
| Cc1ccc(-c2c([C@H](OC(C)(C)C)C(=O)O)c(C)c3nc(O)c4ccc(C(F)(F)F)nc4c3c2C)cc1 [Compound 216] | 46 nM | – | – |

| SMILES | EC50 (Table A-4, four days) | EC50 (Table A-5, four days) | also measured |
| --- | --- | --- | --- |
| Cc1ccc(-c2c([C@H](OC(C)(C)C)C(=O)O)c(C)c3nc(O)c4ccc(C)nc4c3c2C)cc1 [Compound 217] | 41 nM | – | – |
| Cc1c(-c2c([C@H](OC(C)(C)C)C(=O)O)c(C)c3nc(O)c4cc(F)cnc4c3c2C)ccc2c1CCCO2 [Compound 218] | 6.4 nM | – | – |
| Cc1ccc(-c2c(C)c3c(c(C)c2[C@H](OC(C)(C)C)C(=O)O)N(S(C)(=O)=O)Cc2ccc(F)c(F)c2-3)cc1 [Compound 220] | 7.3 nM | – | – |
| Cc1ccc(-c2c([C@H](OC(C)(C)C)C(=O)O)c(C)c3nc(O)c4c(c3c2C)CCCN4)cc1 [Compound 221] | 90 nM | – | – |
| COc1ccc2c(c1)c(O)nc1c(C)c([C@H](OC(C)(C)C)C(=O)O)c(-c3ccc(C)cc3)c(C)c12 [Compound 223] | 34 nM | – | – |
| Cc1c(-c2c(C)c3c(c(C)c2[C@H](OC(C)(C)C)C(=O)O)N(S(C)(=O)=O)Cc2cccc(F)c2-3)ccc2c1CCCO2 [Compound 224] | 2.5 nM | – | – |
| COc1ccc2c(O)nc3c(C)c([C@H](OC(C)(C)C)C(=O)O)c(-c4ccc(C)cc4)c(C)c3c2c1 [Compound 226] | 58 nM | – | – |
| Cc1ccc(-c2c(C)c3c(c(C)c2[C@H](OC(C)(C)C)C(=O)O)N(S(C)(=O)=O)Cc2c(F)cc(F)cc2-3)cc1 [Compound 228] | 19 nM | – | – |
| Cc1ccc(-c2c([C@H](OC(C)(C)C)C(=O)O)c(C)c3nc(O)c4ccc(F)cc4c3c2C)cc1 [Compound 230] | 94 nM | – | – |
| Cc1ccc(-c2c([C@H](OC(C)(C)C)C(=O)O)c(C)c3nc(O)c4cc(F)c(F)cc4c3c2C)cc1 [Compound 231] | 78 nM | – | – |
| Cc1ccc(-c2c([C@H](OC(C)(C)C)C(=O)O)c(C)c3nc(O)c4cc5c(cc4c3c2C)OCCO5)cc1 [Compound 232] | 12 nM | – | – |
| Cc1ccc(-c2c([C@H](OC(C)(C)C)C(=O)O)c(C)c3nc(O)c4cc5ccccc5nc4c3c2C)cc1 [Compound 233] | 38 nM | – | – |
| Cc1c(-c2c(C)c3c(c(C)c2[C@H](OC(C)(C)C)C(=O)O)N(S(C)(=O)=O)Cc2cccc(F)c2-3)ccc2c1NCCO2 [Compound 235] | 5.4 nM | – | – |
| Cc1c(-c2c([C@H](OC(C)(C)C)C(=O)O)c(C)c3nc(O)c4cc(F)cnc4c3c2C)ccc2c1NCCO2 [Compound 237] | 12 nM | – | – |
| Cc1c([C@H](OC(C)(C)C)C(=O)O)c(-c2ccc(Cl)cc2)c(C)c2c1nc(O)c1cc(F)cnc12 [Compound 238] | 31 nM | – | – |
| Cc1ccc(-c2c([C@H](OC(C)(C)C)C(=O)O)c(C)c3ncc4cc(F)cnc4c3c2C)cc1 [Compound 239] | 81 nM | – | – |
| Cc1ccc(-c2c([C@H](OC(C)(C)C)C(=O)O)c(C)c3nc(N)c4cc(F)cnc4c3c2C)cc1 [Compound 245] | 15 nM | – | – |
| Cc1c(-c2c(C)c3c(c(C)c2[C@H](OC(C)(C)C)C(=O)O)N(S(C)(=O)=O)Cc2c(F)ccc(F)c2-3)ccc2c1CCCO2 [Compound 246] | 2.3 nM | – | – |
| Cc1ccc(-c2c(C)c3c(c(C)c2[C@H](OC(C)(C)C)C(=O)O)N(S(C)(=O)=O)Cc2nc(C)ccc2-3)cc1 [Compound 248] | – | 11 nM | – |

| SMILES | EC50 (Table A-4, four days) | EC50 (Table A-5, four days) | also measured |
| --- | --- | --- | --- |
| Cc1c(-c2c(C)c3c(c(C)c2[C@H](OC(C)(C)C)C(=O)O)N(S(C)(=O)=O)Cc2c(F)ccc(F)c2-3)ccc2c1NCCO2 [Compound 249] | – | 5.8 nM | – |
| Cc1ccc2c(c1F)CN(S(C)(=O)=O)c1c(C)c([C@H](OC(C)(C)C)C(=O)O)c(-c3ccc4c(c3C)CCCO4)c(C)c1-2 [Compound 251] | – | 2.1 nM | – |
| Cc1ccc2c(c1F)CN(S(C)(=O)=O)c1c(C)c([C@H](OC(C)(C)C)C(=O)O)c(-c3ccc4c(c3C)NCCO4)c(C)c1-2 [Compound 254] | – | 3.1 nM | – |
| Cc1c(C2=CCC(C)(C)CC2)c([C@H](OC(C)(C)C)C(=O)O)c(C)c2c1-c1c(F)cccc1CN2S(C)(=O)=O [Compound 258] | – | 3.9 nM | – |
| Cc1c(-c2ccc3c(c2)C(F)(F)CCO3)c([C@H](OC(C)(C)C)C(=O)O)c(C)c2c1-c1c(F)cccc1CN2S(C)(=O)=O [Compound 259] | – | 27 nM | – |
| Cc1c(-c2ccc3c(c2)NCCO3)c([C@H](OC(C)(C)C)C(=O)O)c(C)c2c1-c1c(F)cccc1CN2S(C)(=O)=O [Compound 260] | – | 14 nM | – |
| Cc1c(-c2ccc3c4c(ccnc24)CCO3)c([C@H](OC(C)(C)C)C(=O)O)c(C)c2c1-c1c(F)cccc1CN2S(C)(=O)=O [Compound 262] | – | 25 nM | – |
| COc1ccc(-c2c(C)c3c(c(C)c2[C@H](OC(C)(C)C)C(=O)O)N(S(C)(=O)=O)Cc2cccc(F)c2-3)cc1 [Compound 263] | – | 12 nM | – |
| Cc1c(-c2ccc(F)cc2)c([C@H](OC(C)(C)C)C(=O)O)c(C)c2c1-c1c(F)cccc1CN2S(C)(=O)=O [Compound 264] | – | 19 nM | – |
| Cc1c(-c2ccc(Cl)cc2)c([C@H](OC(C)(C)C)C(=O)O)c(C)c2c1-c1c(F)cccc1CN2S(C)(=O)=O [Compound 265] | – | 11 nM | – |
| Cc1c(-c2ccc3c(c2)CCCO3)c([C@H](OC(C)(C)C)C(=O)O)c(C)c2c1-c1c(F)cccc1CN2S(C)(=O)=O [Compound 266] | – | 7.9 nM | – |
| Cc1c(-c2c(C)c3c(c(C)c2[C@H](OC(C)(C)C)C(=O)O)N(S(C)(=O)=O)Cc2cccc(F)c2-3)cc(F)c2c1CCCO2 [Compound 273] | – | 4.5 nM | – |
| COc1ccc(-c2c(C)c3c(c(C)c2[C@H](OC(C)(C)C)C(=O)O)N(S(C)(=O)=O)Cc2cccc(F)c2-3)c(C)c1 [Compound 275] | – | 15 nM | – |
| Cc1ccc(-c2c(C)c3c(c(C)c2[C@H](OC(C)(C)C)C(=O)O)N(S(C)(=O)=O)Cc2cccc(F)c2-3)c(C)c1 [Compound 278] | – | 3.7 nM | – |
| Cc1ccc(-c2c(C)c3c(c(C)c2[C@H](OC(C)(C)C)C(=O)O)N(S(C)(=O)=O)Cc2cc(C#N)ccc2-3)cc1 [Compound 279] | – | 11 nM | – |
| Cc1c(-c2ccc3c(c2F)NCCO3)c([C@H](OC(C)(C)C)C(=O)O)c(C)c2c1-c1c(F)cccc1CN2S(C)(=O)=O [Compound 282] | – | 8.8 nM | – |
| Cc1ccc(-c2c(C)c3c(c(C)c2[C@H](OC(C)(C)C)C(=O)O)N(S(C)(=O)=O)Cc2cc(F)cnc2-3)cc1 [Compound 284] | – | 16 nM | – |
| Cc1ccc(-c2c(C)c3c(c(C)c2[C@H](OC(C)(C)C)C(=O)O)N(S(C)(=O)=O)CC2CCCCN32)cc1 (some centres unmarked) [Compound 285] | – | 55 nM | – |
